In PubChem BioAssay (NCI):
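Five compound concentrations were applied to cells in 96-well plates for 48 hours; endpoints were derived by simple linear interpolation of the resulting dose-response curve. At the TGI there is no net growth.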

Tests used:
Assay in all cases: inhibition of tumour cell growth, NCI panel, 48 h
[1] = test system: HCC-2998 colon
[2] = test system: SR leukemia
[3] = test system: HOP-92 NSCLC
[4] = test system: OVCAR-5 ovarian
[5] = test system: MDA-MB-231 breast
[6] = test system: PC-3 prostate
[7] = test system: K-562 leukemia
[8] = test system: SK-MEL-2 melanoma
[9] = test system: SN12C renal
[10] = test system: SF-268 CNS
[11] = test system: SK-MEL-28 melanoma
[12] = test system: UACC-257 melanoma
[13] = test system: T-47D breast

Row | Structure (SMILES) | TGI [1] [µM] | TGI [2] [µM] | TGI [3] [µM] | TGI [4] [µM] | TGI [5] [µM] | TGI [6] [µM] | TGI [7] [µM] | TGI [8] [µM] | TGI [9] [µM] | TGI [10] [µM] | TGI [11] [µM] | TGI [12] [µM] | TGI [13] [µM]
1 | CCN(CC)CCNc1ccc2nnn3c4ccc(O)cc4c(=O)c1c23 | 15.4 | 1.48 | 18.2 | 22.4 | 18.2 | 16.9 | 30.6 | 25.2 | 17.8 | 21.7 | 24.2 | 24.9 | 39.7
2 | CCOC(=O)C(C(=S)SC)c1nn2c(=O)cc(C)nc2s1 (stereo unspecified) | 47.2 | 47.1 | 43.9 | 38.7 | 37.9 | 37.3 | 34.9 | 41.5 | 34.2 | 34 | 34.8 | 44.2 | 42.6
3 | CC(=O)C1=C(C)N(c2ccc(C)cc2)C2(O)C3=C(C(=O)c4ccccc4C3=O)C(O)=CC12Cl (stereo unspecified) | 31.6 | > 100 | > 100 | 71.6 | > 100 | > 100 | > 100 | 33 | 57.9 | > 100 | 79.4 | 55.6 | 69.1
4 | CCOc1cc2oc(C)cc(=O)c2c(OC)c1C=Nc1ccc(Cn2c(C)nc3ccccc32)cc1 | > 100 | > 100 | > 100 | > 100 | > 100 | > 100 | > 100 | > 100 | > 100 | > 100 | > 100 | > 100 | > 100
5 | COC(=O)[C@H](CC(C)C)Nc1c(O)c2c(c(O)c1Cl)C(=O)C=CC2=O | > 10 | > 10 | > 10 | > 10 | > 10 | > 10 | > 10 | > 10 | > 10 | > 10 | > 10 | > 10 | > 10
6 | CC(=O)OC12c3ccccc3-c3ccccc3C1C1C(=O)OC(=O)C12 (stereo unspecified) | > 10 | > 10 | > 10 | > 10 | > 10 | > 10 | > 10 | > 10 | > 10 | > 10 | > 10 | > 10 | > 10
7 | COc1ccc(/C=C2\CCC/C(=C\c3ccc(O)c(CN4CCCCC4)c3)C2=O)cc1 | 33.4 | 19.8 | 51.6 | 61.3 | 35.2 | 42.7 | > 100 | 43 | 36.5 | 13.1 | 42.2 | 40.4 | > 73.8
